The text below walks through data of PubChem BioAssay (NCI).

Molecules are shown by their SMILES.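 Results reflect a 48-hour exposure of cells in 96-well plates to compound at five concentrations. TGI marks complete inhibition of growth.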

Common to all, as to assay: NCI tumour cell line growth inhibition, 48 h
Test [1] concerns SF-268 CNS.
For test [2], the system named is SF-539 CNS.
Test [3] deals with SK-MEL-28 melanoma.
The test system of test [4] is U251 CNS.
The subject of test [5] is SK-MEL-5 melanoma.
Test [6] deals with SF-295 CNS.
The subject of test [7] is UO-31 renal.
The test system of test [8] is NCI-H23 lung.
In test [9] the test system is COLO 205 colon.
The test system of test [10] is UACC-257 melanoma.
Test [11] deals with UACC-62 melanoma.
In test [12] the test system is NCI-H226 lung.
Test [13] concerns HT29 colon.
Test [14] relates to MALME-3M melanoma.
Test [15] concerns EKVX NSCLC.
The test system of test [16] is SN12C renal.
Test [17] concerns ACHN renal.
Test [18] concerns NCI/ADR-RES ovarian.
For test [19], the system named is DU-145 prostate.

Regarding `COc1cc(C2C(C(=O)Nc3ccc([N+](=O)[O-])cc3)=C(C)NC(C)=C2C(=O)Nc2ccc([N+](=O)[O-])cc2)ccc1O`, the TGI was above 72.6 µM in test [1]; 41.1 µM in test [2]; 31.3 µM in test [3]; 33.8 µM in test [4]; above 100 µM in test [5]; 65.7 µM in [6]. Further, the TGI is 46.3 µM in test [7]; above 77.1 µM in test [8]; 30.9 µM in test [9]; 54.6 µM in [10]; 42 µM in test [11]; above 63.2 µM in [12]. The TGI in test [13] is 38.1 µM; in [14], 60 µM; in test [15] it was above 100 µM; in [16], 36.4 µM; in [17], above 67.2 µM.

For `CCOC(=O)CCC(NC(=O)c1ccc(N=Cc2nc3ccccc3nc2-c2ccccc2)cc1)C(=O)OCC` (stereo not given), the TGI in [1], in test [2], in test [3], in [4], in [5] and in test [6] was above 100 µM in each case. Further, the TGI in [7], in [8], in test [9], in [10], in [11] and in test [12] was above 100 µM each time. In addition, the TGI in test [13], in [14], in [15], in [16] and in test [17] was above 100 µM each time.

On to `COC(=O)n1c(C)c(C=O)c2ccc(OC)cc21`, for which the TGI in test [2] was 55.2 µM; in test [18], above 100 µM; in test [5], 57.5 µM; in test [6], 69.6 µM; in test [7], above 100 µM; in test [8], 89.7 µM. For the same compound, the TGI was above 100 µM in test [9]; above 100 µM in test [10]; 57.1 µM in test [11]; above 100 µM in [13]; above 100 µM in [14]; above 100 µM in [15]. In addition, the TGI in test [16], in [19] and in [17] was above 100 µM throughout.

On to `C[C@@H]1OC2(O)[C@H]3CCCN3S(=O)(=O)CCN2C1=O` (stereo not given in full), for which the TGI in test [1], in test [2], in test [3], in [4], in test [5] and in [6] was above 100 µM throughout. Besides, the TGI in test [7], in test [8], in [9], in test [10], in [11] and in test [12] was above 100 µM in each case. Further, the TGI in test [13], in test [14], in [15], in [16] and in test [17] was above 100 µM in each case.

Consider `CCN(CC)CCC1(C2CCCCC2)CCC(=O)NC1=O` (stereo not given), for which the TGI in test [1], in test [2], in [3], in test [4], in test [5] and in [6] was above 100 µM in each case. Moreover, the TGI in [7], in test [8], in [9], in [10], in [11] and in [12] was above 100 µM throughout. Further, the TGI in test [13], in [14], in test [15], in [16] and in [17] was above 100 µM in each case.

As for `C#CCNC(=O)NCCCCC(NC(C)=O)C(=O)NCc1ccccc1` (stereo not given), the TGI in [1], in test [2], in test [3], in test [4], in test [5] and in [6] was above 100 µM in each case. Further, the TGI in test [7], in test [8], in [9], in [10], in test [11] and in test [12] was above 100 µM throughout. Moreover, the TGI in [13], in test [14], in test [15], in [16] and in test [17] was above 100 µM in each case.

Turning to `CCc1[nH]c(=O)c2oc3cc4ccccc4cc3c2c1C(=O)O`, the TGI in test [1], in [2], in test [18], in [6], in test [7] and in [10] was above 10 µM each time. The TGI in test [12], in [13], in [14], in test [15], in [16] and in test [19] was above 10 µM each time. The compound also came in with a TGI in test [17] above 10 µM.

`COc1ccccc1-n1c(NN)nc2ccc(Br)cc2c1=O`: the TGI was above 100 µM in test [1]; 84.5 µM in test [2]; above 100 µM in test [3]; above 100 µM in [4]; 43 µM in test [5]; above 100 µM in test [6]. For the same compound, the TGI in test [7] was 93.1 µM; in [8] it was above 100 µM; in test [9], above 100 µM; in [10], 72.1 µM; in test [11], above 100 µM; in [12], above 100 µM. The TGI in test [13], in test [14], in test [15], in test [16] and in test [17] was above 100 µM each time.
